Our source for the IC50 values is PubChem BioAssay AID624003 (Vanderbilt Specialized Chemistry Center, 2012).

The target of this test is Phospholipase D1 (Homo sapiens) + Phospholipase D1 (Homo sapiens) (UniProt Q13393+Q13393). Nature of the test: PLD1 inhibition potency in cells, dose response, cell-based, Lib32, assay 2A (AID 624003). To be noted: cellular PLD1 activity assay.
Phospholipase D1 (Homo sapiens) + Phospholipase D1 (Homo sapiens), sequence (Q13393 whole entry, looked up): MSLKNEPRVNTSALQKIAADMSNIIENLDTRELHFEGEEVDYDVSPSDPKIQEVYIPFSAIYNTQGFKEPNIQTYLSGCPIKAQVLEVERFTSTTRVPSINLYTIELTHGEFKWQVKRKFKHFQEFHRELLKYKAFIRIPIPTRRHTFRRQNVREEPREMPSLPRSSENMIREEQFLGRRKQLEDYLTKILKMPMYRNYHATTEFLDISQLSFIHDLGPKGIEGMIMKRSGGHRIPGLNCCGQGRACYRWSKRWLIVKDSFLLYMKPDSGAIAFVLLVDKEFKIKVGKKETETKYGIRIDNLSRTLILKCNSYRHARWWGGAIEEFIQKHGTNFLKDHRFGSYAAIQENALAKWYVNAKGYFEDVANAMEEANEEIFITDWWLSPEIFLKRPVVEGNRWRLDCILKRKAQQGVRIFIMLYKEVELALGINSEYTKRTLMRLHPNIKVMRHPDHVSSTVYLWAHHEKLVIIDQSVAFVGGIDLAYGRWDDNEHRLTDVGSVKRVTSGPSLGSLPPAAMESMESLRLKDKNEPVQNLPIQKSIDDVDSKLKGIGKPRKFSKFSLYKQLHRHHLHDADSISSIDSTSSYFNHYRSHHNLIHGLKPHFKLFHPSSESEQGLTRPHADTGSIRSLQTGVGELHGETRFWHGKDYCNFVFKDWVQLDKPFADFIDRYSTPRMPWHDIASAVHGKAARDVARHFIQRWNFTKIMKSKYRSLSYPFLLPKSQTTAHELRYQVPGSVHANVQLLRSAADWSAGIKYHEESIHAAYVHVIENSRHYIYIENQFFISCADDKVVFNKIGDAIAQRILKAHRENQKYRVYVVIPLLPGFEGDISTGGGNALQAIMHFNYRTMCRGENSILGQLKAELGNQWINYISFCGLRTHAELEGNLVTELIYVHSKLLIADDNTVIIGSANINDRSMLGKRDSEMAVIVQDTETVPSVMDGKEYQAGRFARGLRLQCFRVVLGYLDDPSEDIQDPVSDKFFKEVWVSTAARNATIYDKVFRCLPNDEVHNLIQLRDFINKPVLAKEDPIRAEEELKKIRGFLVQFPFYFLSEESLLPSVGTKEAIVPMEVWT
Phospholipase D1 (Homo sapiens) + Phospholipase D1 (Homo sapiens), sequence (Q13393 whole entry, looked up): as above

A word on the IC50: it is the concentration at which inhibition is half-maximal. On to `COc1cc(C(=O)N[C@@H](C)CN2CCC3(CC2)C(=O)NCN3c2cccc(F)c2)cc(OC)c1OC`, for which the IC50 is 22 nM. As to `C[C@@H](CN1CCC2(CC1)C(=O)NCN2c1cccc(F)c1)NC(=O)c1cccc(F)c1`, the half-maximal inhibitory concentration (IC50) is 73 nM. To `C[C@@H](CN1CCC2(CC1)C(=O)NCN2c1cccc(F)c1)NC(=O)c1ccc(F)cc1` belongs 20 nM; to `COc1cc(C(=O)NCCN2CCC3(CC2)C(=O)NCN3c2cccc(F)c2)cc(OC)c1OC`, 4320 nM.

With `C[C@@H](CN1CCC2(CC1)C(=O)NCN2c1cccc(F)c1)NC(=O)c1ccc(F)cc1F`, the IC50 is 136 nM. To `C[C@@H](CN1CCC2(CC1)C(=O)NCN2c1cccc(F)c1)NC(=O)c1cccc([N+](=O)[O-])c1` belongs 122 nM; to `C[C@@H](CN1CCC2(CC1)C(=O)NCN2c1cccc(F)c1)NC(=O)c1ccc(F)c(F)c1`, 86 nM. In the case of `O=C(NCCN1CCC2(CC1)C(=O)NCN2c1cccc(F)c1)c1ccc(Br)cc1` it was 1540 nM.
